According to patent US7169785B2, “Methods and compositions of novel triazine compounds” (Reddy US Therapeutics, Inc., priority 2001, dated 2007):
Entries after “also recorded” stand apart in the source; their conditions may differ. Each block holds one compound with its values, some of them ahead of it.

Columns and labels:
IL6 = experiment: Inflammation Data of Table 8: IL6 production compared to cells that did not receive compound (stimulus AGE or TNF not given); format: cell-based
Description: Additional bioactivity data for compounds of the present invention are presented in Table 8, where compounds that have at least the activity of effecting cellular proliferation or at least the activity of modulating inflammation activity, as measured by the assays taught herein, are provided. […] The inclusion of compounds in the categories of the Tables disclosed herein, including this Table, is not to be seen as limiting, in that compounds included in such Tables have at least the activity shown for inclusion in the Table and may have more or other activities. Nor are the Tables to be seen as limiting in that these are the only compounds disclosed herein that have that activity, representative compounds are shown in the Tables that have at least that particular activity for inclusion in the Table. One or more compounds disclosed herein have at least an activity that has utility in treatment of disease states. Note that any hydrogen atoms that are required for any atom to attain its usual valence in a structure presented in Table 8, whether a carbon atom or a heteroatom, should be inferred if it is not specifically indicated.

cells = experiment: Cytotoxicity / lactate dehydrogenase assay and visual observation of cells; format: cell-based
Description: Assays for determining the activity of compounds capable of cytotoxic activity include those taught in herein and others that are well known in the art. In general, to determine if there is cytotoxic activity associated with a compound, cells of a particular type, in a growing stage or a quiescient stage, are treated with the compound of interest. Various parameters of cell death or cessation are used to measure the effects of the compound. For example, the amount of nucleic acid or protein synthesis can be measured or visual observation of the state of the cells, such as release from the substrate, can be used to measure the state of the cells.
An appropriate number of cells are plated in four 96-well plates, one plate for “day 0” and three plates for days 1–3. Cells are treated with at least one compound of the present invention in varying concentrations with and without the apoptosis inducer cisplatin (2 μM) (“+cis” or “−cis”). Unteated cells are also assayed with and without cisplatin. After transfection, the plates are incubated at 37° C. overnight.
An appropriate number of cells are plated in four 96-well plates, one plate for “day 0” and three plates for days 1–3. Cells are treated with at least one compound of the present invention in varying concentrations. The negative control cells have normal media conditions, a duplicate set of wells is treated with the composition in which the compound is provided, but there is no added compound and the positive control cells are treated with the apoptosis inducer cisplatin (2 μM). All of the cells are transfected with a vector having a promoter that is responsive to apoptosis conditions. When apoptosis occurs, the promoter is turned on and the lactic dehydrogenase gene is activated and the enzyme protein is made and active. Activity is easily detected with a color change. After transfection, the plates are incubated at 37° C. overnight.
About 8 mls of warmed alpha MEM LDH lysis buffer (2% Triton X100) and about 8 mls of culture media (½ dilution) are combined. Two 96-well v-bottom plates are prepared, one labeled “lysis” and one labeled “supernatant.” To lyse the cells, about 200 μl Alpha MEM lysis buffer (diluted ½) is added to one test plate from which the supernatant has been removed and added to the plate labeled supernatant. After mixing, about 200 μl of lysed cells are transferred to the lysis plate. Both the lysis and supernatant plates are centrifuged at about 1600 rpm for about 10 min. After centrifugation, about 100 μl of both the supernatant or lysate is transferred to corresponding 96-well flat-bottomed plates.
The assay for cytotoxicity uses the Cytotoxicity Detection Kit (LDH) from Roche Diagnostics Corp. (Indianapolis, Ind.). Using the directionts provided, the dye solution is mixed and added each well of the lysate and supernatant plate and incubated for up to 20–25 min at 15–25° C. in the dark.

[1] = tested on: Human aortic smooth muscle cells; experiment: Smooth muscle cell proliferation assay (anti-proliferation assay, perlecan); format: cell-based; conditions: for IC50: Homo sapiens, read-out: Proliferation Data, average IC50
Description: Human aortic smooth muscle cells (Clonetics) were used. Cells were grown in basal medium containing 5% fetal bovine serum supplemented with growth factors, basic fibroblast growth factor, epidermal growth factor and insulin. […] The cells were then serum starved for 24 h to induce quiescence. Fresh growth medium containing no compound or 10 μM compound was then added and further incubated for 24 h. Cell number was determined by using a cell proliferation assay kit (Celltiter96 AQueous from Promega).

[2] = observed in the proliferation assay

melting point: 81 °C
Structure (SMILES): COc1ccc(Nc2nc(NN3CCCCCC3)nc(N(C)C3CCNCC3)n2)cc1Cl

Structure (SMILES): COc1ccc(Nc2nc(NC3CCCCCC3)nc(N3CCCC3CO)n2)cc1Cl (centres unmarked)
Inflammation Data (result in words) (IL6; concentration not given): Not Active
cell morphology change / cell death observed under Proliferation Data (words with concentration) (cells; [2]): rounding
Proliferation Data (result in words) ([1]; 5 & 10 uM screens): Did not pass

Structure (SMILES): COc1ccc(Nc2nc(NC3CCCCCC3)nc(N3CCN(C)CC3)n2)cc1Cl
inhibition at 10 µM (IL6; at 10 uM): 75%
cell death under Inflammation Data (cells; at 5 uM): 25%
cell death under Inflammation Data (cells; at 10 uM): total cell death
cell morphology change / cell death observed under Proliferation Data (words with concentration) (cells; [2]): blunting androunding
Proliferation Data (result in words) ([1]; 5 & 10 uM screens): Did not pass

Structure (SMILES): CCc1occc(=O)c1Oc1nc(Nc2ccc(OC)c(Cl)c2)nc(NC2CCCCCC2)n1
inhibition at 10 µM (IL6; at 10 uM): 48%
cell death under Inflammation Data (cells; at 10 uM): 20%
Proliferation Data (result in words) ([1]; 5 & 10 uM screens): Not active at 5 & 10 uM

Structure (SMILES): COc1ccc(Nc2nc(NC3CCCCCC3)nc(OC3CCCNC3)n2)cc1Cl (centres unmarked)
inhibition at 10 µM (IL6; at 10 uM): 60%
cell death under Inflammation Data (cells; at 10 uM): 20%
IC50 [1]: 4.9 µM

Structure (SMILES): COc1ccc(Nc2nc(NC3CCCCCC3)nc(OC3CCNCC3)n2)cc1Cl
inhibition at 10 µM (IL6; at 10 uM): 85%
cell death under Inflammation Data (cells; at 10 uM): 20%
IC50 [1]: 1.85 µM

Structure (SMILES): COc1ccc(Nc2nc(NC3CCCCCC3)nc(OCC3CCCN3C)n2)cc1Cl (centres unmarked)
Inflammation Data, inhibition (IL6; at 10 uM): complete inhibition
cell death under Inflammation Data (cells; at 10 uM): total cell death
IC50 [1]: 5.25 µM

Structure (SMILES): COc1ccc(Nc2nc(NC3CCCCCC3)nc(OC3CCN(C)CC3)n2)cc1Cl
inhibition at 10 µM (IL6; at 10 uM): 95%
cell death under Inflammation Data (cells; at 10 uM): total cell death
cell morphology change / cell death observed under Proliferation Data (words with concentration) (cells; [2]): rounding at 5 & 10 uM

Structure (SMILES): CN1CCC(N(C)c2nc(Nc3ccc(OCc4ccccc4)c(Cl)c3)nc(NC3CCCCCC3)n2)CC1
Inflammation Data (result in words) (IL6; at 1 uM): Not active
cell death under Inflammation Data (cells; 5 uM): 30%
cell death under Inflammation Data (cells; 10 uM): totaldeath

Structure (SMILES): CN(c1nc(Nc2ccc(OCc3ccccc3)c(Cl)c2)nc(NC2CCCCCC2)n1)C1CCNCC1
Inflammation Data (result in words) (IL6; at 1 uM): not active
inhibition at 5 µM (IL6; at 5 uM): 58%
cell death under Inflammation Data (cells; 5 uM): 50%
cell death under Inflammation Data (cells; 10 uM): total cell death

Structure (SMILES): CN(c1nc(Nc2ccc(O)cc2)nc(NC2CCCCCC2)n1)C1CCNCC1
inhibition at 5 µM (IL6; at 5 uM): 50%
cell death under Inflammation Data (cells; 5 uM): 20%
cell death under Inflammation Data (cells; 10 uM): total cell death

Structure (SMILES): COc1ccc(Nc2nc(NC3CCCCCC3)nc(NC3CCN(Cc4ccccc4)CC3)n2)cc1F
inhibition at 5 µM (IL6; at 5 uM): 43%
inhibition at 10 µM (IL6; at 10 uM): 97%
cell death under Inflammation Data (cells; at 5 uM): 25%
cell death under Inflammation Data (cells; at 10 uM): total cell death
cell morphology change / cell death observed under Proliferation Data (words with concentration) (cells; [2]): cell bluntingat 3 uM; also recorded: rounding at 5uM

Structure (SMILES): COc1ccc(Nc2nc(NC3CCCCCC3)nc(NC3CCNCC3)n2)cc1
inhibition at 5 µM (IL6; at 5 uM): 69%
inhibition at 10 µM (IL6; at 10 uM): 88%
cell death under Inflammation Data (cells; at 5 uM): 20%
cell death under Inflammation Data (cells; at 10 uM): > 50%

Structure (SMILES): COc1ccc(Nc2nc(Cl)nc(Nc3ccc(OC)c(F)c3)n2)cc1F
Inflammation Data, inhibition (IL6; at 5 uM): noeffect
inhibition at 10 µM (IL6; at 10 uM): 20%
Proliferation Data (result in words) ([1]; concentration not given): Not active

melting point: 78 to 80 °C
Structure (SMILES): COc1ccc(Nc2nc(NC3CCCCCC3)nc(N3CCSCC3)n2)cc1Cl

melting point: 98 °C
Structure (SMILES): COc1ccc(Nc2nc(Cl)nc(OCC3CCCCC3)n2)cc1F [Compound 114, (4-Chloro-6-cyclohexylmethoxy-[1,3,5]triazin-2-yl)-(3-fluoro-4-methoxy-phenyl)-amine]

melting point: 181 °C
Structure (SMILES): COc1ccc(Nc2nc(Nc3ccc(OC)c(F)c3)nc(OCC3CCCCC3)n2)cc1F [Compound 115, 6-Cyclohexylmethoxy-N,N′-bis-(3-fluoro-4-methoxy-phenyl)-1,3,5-triazine-2,4-diamine]

melting point: 59 °C
Structure (SMILES): CCN1CCCC1CNc1nc(Nc2ccc(OC)c(F)c2)nc(OCC2CCCCC2)n1 (centres unmarked) [Compound 116, 6-Cyclohexylmethoxy-N-(1-ethyl-pyrrolidin-2-ylmethyl)-N′-(3-fluoro-4-methoxy-phenyl)-[1,3,5]triazine-2,4-diamine]

melting point: 114 °C
Structure (SMILES): COc1ccc(Nc2nc(Cl)nc(OCC3CCCCC3)n2)cc1Cl [Compound 117, (4-Chloro-6-cyclohexylmethoxy-[1,3,5]triazin-2-yl)-(3-chloro-4-methoxy-phenyl)-amine]

melting point: 188 °C
Structure (SMILES): COc1ccc(Nc2nc(Nc3ccc(OC)c(Cl)c3)nc(OCC3CCCCC3)n2)cc1Cl [Compound 118, N,N′-Bis-(3-chloro-4-methoxy-phenyl)-6-cyclohexylmethoxy-1,3,5-triazine-2,4-diamine]

melting point: 183 °C
Structure (SMILES): COc1ccc(Nc2nc(Nc3ccc(OC)c(Cl)c3)nc(NC3CCCCCC3)n2)cc1Cl [Compound 122, N,N′-Bis-(3-chloro-4-methoxy-phenyl)-N″-cycloheptyl-[1,3,5]triazine-2,4,6-triamine]

melting point: 134 °C
Structure (SMILES): COc1ccc(Nc2nc(Cl)nc(Cl)n2)cc1F [Compound 124, (4,6-Dichloro-[1,3,5]triazin-2-yl)-(3-fluoro-4-methoxy-phenyl)-amine]

Structure (SMILES): CCN1CCCC1CNc1nc(NCC2CCCCC2)nc(Nc2ccc(OC)c(F)c2)n1 (centres unmarked) [Compound 126, N-Cyclohexylmethyl-N′-(1-ethyl-pyrrolidin-2-ylmethyl)-N″-(3-fluoro-4-methoxy-phenyl)-[1,3,5]triazine-2,4,6-triamine]
melting point: 72 °C

melting point: > 310 °C
Structure (SMILES): COc1ccc(Nc2nc(O)nc(NC3CCCCCC3)n2)cc1Cl [Compound 147, 4-(3-Chloro-4-methoxy-phenylamino)-6-cycloheptylamino-1,3,5-triazin-2-ol]

melting point: 138 to 140 °C
Structure (SMILES): COc1ccc(Nc2nc(NC3CCCCCC3)nc(OC3CCCN(C(C)=O)C3)n2)cc1Cl (centres unmarked) [Compound E20, 1-[3-{4-(3-chloro-4-methoxyanilino)-6-cycloheptylamino-1,3,5-triazine-2-yloxy}piperidino]-1-ethanone]

melting point: 136 to 138 °C
Structure (SMILES): COc1ccc(Nc2nc(NC3CCCCCC3)nc(OC(C)C)n2)cc1Cl [Compound E21, N^2-(3-chloro-4-methoxyphenyl)-N^4-cycloheptyl-6-isopropoxy-1,3,5-triazine-2,4-diamine]

Structure (SMILES): COc1ccc(Nc2nc(NC3CCCCCC3)nc(OC3CCCN(C(C)=O)C3)n2)cc1Cl (centres unmarked) [drawing 992]
Inflammation Data, inhibition (IL6; at 10 uM): complete inhibition at 10 uM
Proliferation Data (result in words) ([1]; 5 & 10 uM screens): Not active at 5 & 10 uM

Structure (SMILES): COc1ccc(Nc2nc(NC3CCCCCC3)nc(OC(C)C)n2)cc1Cl [drawing 993]
inhibition at 10 µM (IL6; at 10 uM): < 25%
Proliferation Data (result in words) ([1]; concentration not given): Not active

Structure (SMILES): COc1ccc(Nc2nc(NC3CCCCCC3)nc(OCC3CCCN3)n2)cc1Cl (centres unmarked) [drawing 994]
inhibition at 10 µM (IL6; at 10 uM): 75%
Proliferation Data (result in words) ([1]; 5 & 10 uM screens): Not active at 5 & 10 uM

Structure (SMILES): COc1ccc(Nc2nc(NC3CCCCCC3)nc(N3CCSCC3)n2)cc1Cl [drawing 999]
Inflammation Data (result in words) (IL6; concentration not given): Not Active
Proliferation Data (result in words) ([1]; concentration not given): Not active

Structure (SMILES): COc1ccc(Nc2nc(NC3CCCCCC3)nc(Oc3ccccc3F)n2)cc1Cl [drawing 1000]
Inflammation Data (result in words) (IL6; concentration not given): Not Active
Proliferation Data (result in words) ([1]; concentration not given): Not active

Structure (SMILES): CN1CCC(N(C)c2nc(Nc3ccc(O)c(Cl)c3)nc(NC3CCCCCC3)n2)CC1 [drawing 1008]
inhibition at 5 µM (IL6; at 5 uM): 64%
inhibition at 10 µM (IL6; at 10 uM): 84%
cell death under Inflammation Data (cells; 10 uM): total cell death
cell morphology change / cell death observed under Proliferation Data (words with concentration) (cells; human, 24 h): cell bluntingat 3 to 10 uM

Structure (SMILES): COc1ccc(Nc2nc(NC3CCCCCC3)nc(NC3CCN(Cc4ccccc4)CC3)n2)cc1Cl [drawing 1010]
inhibition at 5 µM (IL6; at 5 uM): 37%
inhibition at 10 µM (IL6; at 10 uM): 41%
cell death under Inflammation Data (cells; at 5 uM): 20%
cell death under Inflammation Data (cells; at 10 uM): > 50%
cell morphology change / cell death observed under Proliferation Data (words with concentration) (cells; [2]): cell blunting at 1 uM; also recorded: rounding at 5 uM
